Like-named read-outs stand apart in the source and are kept apart here.
How the values were obtained:
[1] = Salt dependence of Mango/TO1-Biotin fluorescence: K+ titration; format: binding; details: for Kd / Hill Coefficients K^+: 25 nM RNA, 50 nM TO1-Biotin, 10 mM Tris pH 7.2; for Hill Coefficients K^+: * estimated from initial rise of fluorescence
Experimental: (§1) FIG. 10|Salt dependence of new Mango variants. Dependence of fluorescence of each Mango for (a) K^+, (b) Na^+ in place of K^+, and (c) Mg^2+ ions in a buffer containing 140 mM K^+. […] 10 mM Tris buffer (pH 7.2) was used in place of phosphate of the WB buffer to avoid monovalent counter ions. Color-coding is as follows: Black—Mango I, Blue—Mango II, Green—Mango III, Orange—Mango IV. Hill coefficients are fitted to dark points. Points in lighter shade have been excluded from the fit. Error bars are standard deviations of three replicates.

[2] = Salt dependence of Mango/TO1-Biotin fluorescence: Na+ in place of K+; format: binding
Experimental: as §1

[3] = Salt dependence of Mango/TO1-Biotin fluorescence: Mg2+ titration; details: in the presence of potassium; Mg2+ 256 mM
Experimental: as §1

[4] = Brightness and photophysics of Mango fluorophore complexes; format: physicochemical
Source text: (§2) FIG. 2|RNA Mango I, II, III and IV core sequences and their properties. (a) Color coded alignment of RNA Mango I, II, III and IV. G residues in yellow are protected from DMS cleavage (data from panel d) when folded in the presence of fluorophore. Quadruplex stacks and their associated propeller sequences are numbered 1 through 4. The GAAA isolation motif of Mango I, together with two adenines essential for binding, are shown in green and red respectively. Purple shading represents a flanking stem region common for all four Mango aptamers. Schematic: A tertiary structure schematic of Mango I, showing tier 1, 2 and 3 of its quadruplex structure (T1, T2 and T3) and color-coded as in (a). […] Bottom: Top view of the Mango I core (PBD ID: 5V3F), showing the T3 tier of the quadruplex and relevant propeller residues, color coding matches the schematic and panel a. […] KD values are shown next to each titration. (c) Same as for panel b but using 20 nM TO3-Biotin. Data for panels b and c have been normalized such that Mango I has a maximum fluorescence of 1. Error bars are standard deviation of three replicates. (d) DMS chemical protection patterns for the four Mango aptamers. 3′ end-labelled RNA (terminal ^32pCp shown as a black asterisk) was subjected to DMS chemical modification followed by reduction by NaBH4 and aniline cleavage as described in the methods. […] Legend: T1—denatured T1 ladder; OH—partial alkaline hydrolysis ladder; (−) DMS—denatured reaction with ddH2O added in place of DMS; 80° C.
FIG. 13|Photophysics: excitation/emission. (a) Excitation (dark curve) and emission (light curve) spectra of each Mango. All Mangos have Δex max=510 nm and Δem max=535 nm. Color-coding is as follows: Black—Mango I, Blue—Mango II, Green—Mango III, Red—Mango IV.
(§3) Fluorescence data was gathered using a Varian Cary Eclipse Spectrophotometer unless otherwise stated. […] Fluorescence was measured at the maximum excitation and emission wavelengths of each complex (FIG. 13).

[5] = Formaldehyde resistance assay; format: physicochemical; details: in vitro, TO1-Biotin
Experimental: FIG. 15|Effect of formaldehyde on Mango fluorescence. […] In (b) RNA is incubated with the corresponding amounts of formaldehyde first for one hour, then TO1-Biotin is added. Data for each panel is normalized to RFU at the 0% formaldehyde, 0 min point.
RNA Mango aptamers were incubated with TO1-Biotin in WB buffer for at least one hour until equilibrium fluorescence was reached. […] Fluorescence was measured as a kinetic run at a rate of 2 readings per minute using a Varian Cary Eclipse Fluorescence Spectrophotometer, ex/em=510±2.5/535±5 nm.

[6] = Photobleaching under constant illumination; details: identical illumination conditions, on average
Experimental: FIG. 16|Formation of 5S-Mango foci and their dynamics in live cells. (a) 5S-Mango IV imaged post cell fixation at 5, 15, 30 and 60 mins after transfection using Lipofectamine based CRISPRMAX transfection reagent. […] (c) Root mean-squared displacement (RMSD) of three observed foci with different diffusive behaviors, fast (Green), slow (Blue) and static (Red) shown in Video 3. Scale bars are 10 μm and arrows indicate foci of interest. (d) Normalized photobleaching traces of 5S-F30-Mango I and IV compared to 5S-F30-dBroccoli under constant illumination with an exposure time of 200 ms. Photobleaching half-lives are stated in the table adjacent and were calculated from an exponential fit of each curve.

[7] = read-out: Kd for TO1-Biotin, original RNA Mango, earlier work, cited from earlier work
[8] = original RNA Mango, earlier work; read-out: Kd for TO3-Biotin; cited from earlier work
[9] = Fluorescence titration, binding affinity for TO1-Biotin
Source text: as §2, §3
Where F([RNA]) is the fluorescence as a function of RNA concentration [RNA], Fmax is the maximal fluorescence of the bound complex and Funbound the fluorescence of the unbound fluorophore. When the fluorescence of Funbound was undetectable, it was set to zero.
Fluorescence readings were recorded using a Varian Cary Eclipse Spectrophotometer set to measure at the maximum excitation and emission wavelengths of the Mango II aptamer dye complex. Fluorescence titrations were performed in Mango selection buffer (WB: 140 mM KCl, 1 mM MgCl2, 10 mM NaH2PO4 pH 7.2, 0.05% Tween-20).

Circular template = assay: Rolling circle transcription of Mango III; format: biochemical; details: room temperature, excess TO1-Biotin
Source text: FIG. 33|Rolling circle transcription of Mango III.
FIG. 34|Rolling circle transcription of Mango III. Circular construct represented here was used in FIG. 33. Purple: T7 binding site, red and orange template hybridization arms (ligation site between them). Blue Mango sequence.
This illustrates that in select embodiments Mango aptamers may be used for detection of nucleic acids in a two-step fluorescence-based detection system using the Mango aptamers as the reporter. […] Nucleic acid concentration can be discerned by a simple fluorescence reading. In these assays, the Mango III fluorescence emerged rapidly upon the addition of the RNA polymerase (FIG. 32).

[10] = Brightness response to a fluorophore series; format: biochemical; details: 500 nM RNA, 10 nM fluorophore
Experimental: FIG. 53|Brightness response of MI, MII, MIII mutants and MIV to a fluorophore series. Single fluorescence point reads done in triplicate. 500 nM RNa was incubated with 10 nM fluorophore at room temperature for ˜1 h to allow folding of the RNA aptamers in 1×WB (140 mM KCl, 1 mM MgCl2, 10 mM NaH2PO4, pH 7.2.

[11] = Na+ in place of K+, 25 nM RNA, 50 nM TO1-Biotin

Row | Substance | Kd [1] [mM] | Hill Coefficients K^+ [1] | fluorescence in the presence of sodium ions [2] | effect of high levels of Mg^2+ on fluorescence [3] | quantum yield of the TO1-Biotin complex [4] | brightness of the TO1-Biotin bound complex [4] | resistance to formaldehyde [5] | bleaching half-lives longer than RNA Spinach [6] [times] | Kd [7] [µM] | Kd ([7]; listed as RNA Mango) [µM] | Kd [8] [µM] | TO1-Biotin binding affinity (in words) [9] | higher affinity of the fluorescence response to potassium and sodium ([1]; against the other Mangos) | Hill Coefficients Na^+ [2, 11] | Kd [2, 11] [mM] | brighter than enhanced GFP (EGFP) ([4]; TO1-Biotin bound complex) [times] | brighter than Mango-I ([4]; TO1-Biotin, FIG. 2b) [fold] | sensitivity (Circular template) [nM] | binding of TO1 fluorophore derivatives [10]
1 | Mango-I: original RNA Mango aptamer; core SEQ ID NO: 1 GAAGGGACGGUGCGGAGAGGAGA (chemistry not given here) [reference compound] | 48 ± 5 | 1.2 ± 0.1 | did not fluoresce appreciably | strongly inhibited | 0.14 | 11,000 M^−1cm^−1 | substantially resistant to formaldehyde | 10 | ~0.003 | 0.0031 | 0.008 |  |  |  |  |  |  |  | 
2 | Mango-III: minimal construct engineered from isolate R5-NMM-20; two-tiered G-quadruplex aptamer | 0.4 ± 0.1 | 1.0 ± 0.8* |  | only modestly inhibited |  | 43,000 M^−1cm^−1 |  |  |  |  |  | slightly weaker affinities than Mango-I | two order of magnitude | 0.5 ± 0.5 | 0.8 ± 0.3 | 1.3 | 4 | 5 | bound to a broad set of TO1 fluorophore derivatives

Source: US11434490B2, “Fluorogen-binding RNA aptamers” (CENTRE NATIONAL DE LA RECHERCHE SCIENTIFIQUE, priority 2017, dated 2022)
